# Measurements published in publication PMC7882696, “Co-production of Xylooligosaccharides and Xylose From Poplar Sawdust by Recombinant Endo-1,4-β-Xylanase and β-Xylosidase Mixture Hydrolysis” (Frontiers in Bioengineering and Biotechnology, 2021).
# Legend:
# Assay type in all cases: biochemical, Dictyoglomus thermophilum
# Xln-DT [1] = test system: T1, Xln-DT; assay: glucose release, Michaelis-Menten; details: 0.2-10 g/L substrate
# T1 construct: recombinant, pET-28a-xln-DT in E. coli BL21(DE3), heat treatment and Ni-NTA; ~55 kDa on SDS-PAGE
# Source text: glucose release, Michaelis-Menten on Xln-DT
# Xln-DT [2] = test system: T1, Xln-DT; assay: xylose release, Michaelis-Menten; details: 0.2-10 g/L substrate
# Source text: xylose release, Michaelis-Menten on Xln-DT
# Xln-DT [3] = test system: T1, Xln-DT; assay: pNP release at […] nm, Michaelis-Menten; details: 50 mM sodium phosphate pH 6.0, optimal temperature
Km (Xln-DT [3]) [µM],SMILES,further results
–,OC[C@H]1O[C@@H](O[C@H]2[C@H](O)[C@@H](O)C(O)O[C@@H]2CO)[C@H](O)[C@@H](O)[C@@H]1O (some centres unmarked) [Cellobiose],Km (Xln-DT [1]): 11000 µM
–,"OC1OC[C@@H](O[C@@H]2OC[C@@H](O)[C@H](O)[C@H]2O)[C@H](O)[C@H]1O (some centres unmarked) [X2, Xylobiose]",Km (Xln-DT [2]): 930 µM
1020,O=[N+]([O-])c1ccc(O[C@@H]2O[C@@H](CO)[C@H](O)[C@H]2O)cc1 [pNPA],–
3670,O=[N+]([O-])c1ccc(O[C@@H]2O[C@H](CO)[C@@H](O)[C@H](O)[C@H]2O)cc1 [pNPG],–
1660,O=[N+]([O-])c1ccc(O[C@@H]2OC[C@@H](O)[C@H](O)[C@H]2O)cc1 [pNPX],–
